Measurements taken from ChEMBL document CHEMBL1151082, “Structure-directed discovery of an inhibitor of the binding of HIV GP120 to the CD4 receptor” (Bioorg Med Chem Lett, 1993).

Columns and labels:
[1] = target: T1, Envelope glycoprotein gp160 (Human immunodeficiency virus type 1 group M subtype B (isolate HXB2)(HIV-1), UniProt P04578); assay: Tested for inhibition of binding of soluble recombinant CD4-gp120 using ELISA assay; IA is Inactive
[2] = target: T1, Envelope glycoprotein gp160; assay: Tested for inhibition of binding of soluble recombinant CD4-gp120 using ELISA assay
[3] = target: T1, Envelope glycoprotein gp160; assay: Tested for rate constant of binding to inhibit soluble recombinant CD4-gp120; value ranges form 4-20 uM
[4] = target: T1, Envelope glycoprotein gp160; assay: Tested in an HIV viral syncytium assay for inhibition of binding of recombinant CD4-gp120
[5] = target: T1, Envelope glycoprotein gp160; assay: Tested for ability to block the CD4-gp120 interaction measured by binding of [125I]sCD4 to gp120

IC50 [1] | SMILES | further results
Not Active | O=C1OC(CBr)CC1(c1ccccc1)c1ccccc1 (stereo unspecified) | –
Not Active | CCN(Cc1ccccc1)CC1CC(c2ccccc2)(c2ccccc2)C(=O)O1 (stereo unspecified) | –
Not Active | CCNCC1CC(c2ccccc2)(c2ccccc2)C(=O)O1 (stereo unspecified) | –
Not Active | CN(C)CCNCC1CC(c2ccccc2)(c2ccccc2)C(=O)O1 (stereo unspecified) | –
Not Active | CC1=NCCN1CC1CC(c2ccccc2)(c2ccccc2)C(=O)O1 (stereo unspecified) | –
Not Active | CCCCN(CCCC)CC1CC(c2ccccc2)(c2ccccc2)C(=O)O1 (stereo unspecified) | –
– | CC(C)C[C@H](NC(=O)[C@H](Cc1ccccc1)N1NC(=O)[C@H]([C@@H](N)CO)CCC(=O)N[C@@H](CO)C1=O)C(=O)N[C@H](C(=O)NCc1ccccc1)[C@@H](C)O | IC50 [2]: > 100 µM; Kd [3]: 4 µM
Not Active | CC1(C)CN(CC2CC(c3ccccc3)(c3ccccc3)C(=O)O2)C=N1 (stereo unspecified) | –
Not Active | CCN(CCN(C)C)CC1CC(c2ccccc2)(c2ccccc2)C(=O)O1 (stereo unspecified) | –
Not Active | CCN(CC1CC(c2ccccc2)(c2ccccc2)C(=O)O1)C(=O)C(=O)OC (stereo unspecified) | –
– | COC(=O)C(=O)N1CCC[C@@H]1C(=O)N[C@H](Cc1ccccc1)C(=O)OCc1ccccc1 | IC50 [2]: 300 µM
– | CCN(CCCl)CC1CC(c2ccccc2)(c2ccccc2)C(=O)O1 (stereo unspecified) | IC50 [2]: 35 µM; IC50 [4]: 100 µM; IC50 [5]: 30 µM

SMILES | IC50 [1] | further results
O=C1OC(C[N+]23CCC(CC2)CC3)CC1(c1ccccc1)c1ccccc1.[Br-] (stereo unspecified) | Not Active | –
